Data: patent US20130022612A1, “METHODS AND COMPOSITIONS FOR MALARIA PROPHYLAXIS” (priority 2004, published 2013)

Tests used:
[1] = tested on: P. berghei sporozoites; type: cell-based, Plasmodium berghei
Procedure: %invasion=total sporozites−extracellular sporozites×100/total sporozites
Invasion assays were performed as previously described (Pinzon-Ortiz, C., et al.) with some modifications. […] Cells were then washed, fixed, and sporozoites were stained with a double staining assay that distinguishes between intracellular and extracellular sporozoites (Renia, L., et al.). […]

[2] = tested on: P. yoelii sporozoites; assay: Sporozoite infectivity in vivo (liver 18S rRNA by RT and real time PCR); set-up: species or system Plasmodium yoelii in Swiss/Webster mice
Procedure: Swiss/Webster mice were given three intraperitoneal injections of DMEM with or without E-64 (50 mg/kg/injection) at 16 hours, 2.5 hours, and 1 hour prior to intravenous injection of 15,000 P. yoelii sporozoites. Forty hours later, livers were harvested and total RNA was isolated using Tri-Reagent (Molecular Research Center, Cincinnati, Ohio). Malaria infection was quantified using reverse-transcription (RT) followed by real time PCR as outlined in (Bruna-Romero, et al. (2001)). RTs were performed with […] of total RNA and random hexamers (PE Applied Biosystems, Foster City, Calif.). Real time PCR was performed using primers that recognize P. yoelii-specific sequences within the 18S rRNA (Bruna-Romero, et al. (2001)) and the SYBR Green Core PCR kit (PE Applied Biosystems). Ten-fold dilutions of a plasmid construct containing the P. yoelii 18S gene were used to create a standard curve.
Swiss/Webster mice were given either 5 or 8 mg/kg of allicin (in DMEM without Cys/Met) intravenously (i.v.) at 60 minutes, 30 minutes, or immediately before i.v. injection of 10^4 P. yoelii sporozoites. Forty hours later, livers were harvested, total RNA was isolated, and malaria infection was quantified using reverse transcription (RT) followed by real time PCR using primers that recognize P. yoelii-specific sequences within the 18S rRNA as previously described (Bruna-Romero, O., et al.). Ten-fold dilutions of a plasmid construct containing the P. yoelii 18S rRNA gene were used to create a standard curve. For allicin preincubation experiments, P. yoelii sporozoites were preincubated with or without 50 μM allicin (in DMEM without Cys/Met) for ten minutes at 28° C. and diluted 12-fold with medium before i.v. injection into mice. All in vivo data were analyzed using the Student t-test for unpaired samples.

[3] = tested on: CSP processing in P. berghei sporozoites; assay: Pulse-chase metabolic labeling of CSP processing, P. berghei sporozoites; type: cell-based, Plasmodium berghei
Procedure: P. berghei sporozoites were incubated in Dulbecco's Modified Eagle Medium (DMEM; Invitrogen, Carlsbad, Calif.) without cysteine (Cys) and methionine (Met), containing 1% BSA and […] L-[35 S]-Cys/Met (Pro-Mix, Amersham Pharmacia) in a total volume of 200 μl for one hour at 28° C. They were then washed and resuspended in DMEM/BSA containing unlabeled Cys/Met at 28° C. for the indicated time in the presence or absence of the indicated protease inhibitor. Sporozoites were then lysed and CSP was immunoprecipitated and analyzed by autoradiography as outlined below.
When sporozoites were incubated with specific inhibitors, their concentrations were as follows: 10 […] E-64; 1 mM phenylmethylsulfonyl fluoride (PMSF); 0.3 mM aprotinin; 100 mM 3,4 DCl; 75 mM leupeptin; 100 mM TLCK; 1 mM pepstatin; 1 mM 1,10 phenanthroline; 5 mM EDTA; 0.5% sodium azide. To check for toxicity by propidium iodide (PI) staining, P. berghei sporozoites were incubated in the presence or absence of the various protease inhibitors for two hours at 28° C., PI was then added to a final concentration of […] for five minutes at 28° C. The sporozoites were washed and viewed under a fluorescent microscope.
Metabolically-labeled sporozoites were lysed in lysis buffer (1% Triton X-100, 50 mM Tris-HCl pH 8.0) with 150 mM NaCl containing a protease inhibitor cocktail (Complete Mini-Tablets, Roche) for one hour at 4° C. The lysates were incubated with mAb 3D11 conjugated to agarose overnight at 4° C. with agitation, and the beads were then washed sequentially with lysis buffer containing 150 mM NaCl, high salt buffer (500 mM NaCl in lysis buffer), lysis buffer without added NaCl, and pre-elution buffer (0.5% Triton X-100, 10 mM Tris-HCl pH 6.8). CSP was eluted with 1% SDS in 0.1 M glycine pH 1.8, neutralized with 1.5 M Tris-HCl pH 8.8, and run on a 7.5% SDS-polyacrylamide gel under nonreducing conditions.
P. berghei sporozoites were metabolically labeled as previously described (Bruna-Romero, O., et al.). Briefly, sporozoites were labeled in Dulbecco's Modified Eagle Medium containing 1% BSA (DMEM/BSA) without Cys/Met and with 400 μCi/ml L-[^35S]Cys/Met for one hour at 28° C. and chased in DMEM/BSA with Cys/Met at 28° C. in the presence of 10 μM E-64 or the indicated concentrations of allicin. Labeled sporozoites were lysed in 1% Triton X-100/150 mM NaCl/50 mM Tris-HCl pH 8.0 with protease inhibitors, and lysates were incubated with 3D11-sepharose overnight at 4° C. CSP was eluted with 1% SDS in 0.1 M glycine pH 1.8, neutralized with Tris-HCl pH 8.8, and run on a 7.5% SDS-polyacrylamide gel under nonreducing conditions. The gel was fixed, enhanced with Amplify (Amersham Pharmacia), dried and exposed to film.
P. berghei sporozoites were metabolically labeled in DMEM without Cys/Met, 1% BSA and 400 μCi/ml L-[^355]-Cys/Met for 1 hour at 28° C. and then kept on ice or chased at 28° C. for the indicated times. Details of this procedure are outlined in (Coppi et al., 2005). To investigate the kinetics of processing in the presence of hepatocytes, sporozoites were labeled as above, chased at 28° C. for 1 hour and then centrifuged (300×g) onto glass coverslips with Hepa 1-6 cells and incubated at 37° C. for 5, 15 or 30 minutes. To investigate the effect of antibodies on CSP cleavage, sporozoites were labeled as above and then chased for 2 hours in the presence of the indicated antibody. Monoclonal antibodies were used as purified antibodies at the indicated concentrations and the IgG fraction of the NH2-terminal antiserum was used after isolation by Protein A (Vivapure maxiprepA; Sartorius, Edgewood, N.Y.). In all cases, labeled sporozoites (with or without Hepa 1-6 cells) were lysed and labeled CSP was immunoprecipitated with mAb-3D11 conjugated to sepharose or in the case of P. falciparum CSP, with mAb-2A10 conjugated to sepharose, as previously described (Coppi et al., 2005). CSP was eluted from the beads, run on an SDS-PAGE gel which was enhanced, dried and exposed to film. […]

| Compound | effect on sporozoite invasion, target cells pretreated ([1]; Hepa 1-6 cells pretreated with E-64, untreated sporozoites) | number of extracellular (attached) sporozoites ([1]; in the presence of E-64) | inhibition of invasion ([1]; sporozoites preincubated two hours with 10 mM E-64, Hepa 1-6 cells, one hour) | intracellular sporozoites in the presence of inhibitor ([1]; wild type and RCon sporozoites, Hepa 1-6, 1 hr) | protection from malaria infection (liver P. yoelii 18S rRNA) ([2]; E-64 50 mg/kg/injection intraperitoneal at 16 hours, 2.5 hours, 1 hour before 15,000 sporozoites i.v.) | effect on CSP processing ([3]; two hour chase at 28° C., 10 mM E-64, 1 mM PMSF, 0.3 mM aprotinin, 100 mM 3,4 DCl, 75 mM leupeptin, 100 mM TLCK, 1 mM pepstatin, 1 mM 1,10 phenanthroline, 5 mM EDTA) | sporozoite invasion of cells ([1]; 10, 25, and 50 μM allicin pretreatment) | effect on invasion, host cells pretreated ([1]; Hepa 1-6 cells preincubated with 50 μM allicin one hour, untreated sporozoites) | sporozoite infectivity in vivo versus untreated controls ([2]; 8 mg/kg allicin i.v. just before injection of sporozoites) | protection in vivo ([2]; 8 mg/kg allicin i.v. one hour before sporozoites) | sporozoite infectivity in vivo versus untreated mice ([2]; 8 mg/kg allicin i.v. thirty minutes before sporozoites) | reduction in infection ([2]; allicin 5 mg/kg i.v. one minute before sporozoites) | decrease in infection compared to controls ([2]; allicin 8 mg/kg i.v. one minute before sporozoites) | malaria infection in mice injected with pretreated sporozoites ([2]; sporozoites preincubated with 50 μM allicin ten minutes, diluted 12-fold) | CSP cleavage ([3]; 50 μM allicin for 10 minutes, then diluted to 4.2 μM for the remainder of the chase) | CSP cleavage ([3]; 10, 25, and 50 μM allicin, two hour chase) | degree of inhibition of CSP cleavage relative to E-64 ([3]; allicin versus 10 μM E-64) |
| --- | --- | --- | --- | --- | --- | --- | --- | --- | --- | --- | --- | --- | --- | --- | --- | --- | --- |
| CC(C)C[C@H](NC(=O)[C@H]1O[C@@H]1C(=O)O)C(=O)NCCCCN=C(N)N (relative stereo) [E-64, L-trans-epoxysuccinyl-leucylamide-[4-guanido]-butane] | no inhibitory effect on sporozoite invasion | always enhanced | 90% | few intracellular wild type and RCon sporozoites | completely protected from malaria infection | inhibited CSP processing | – | – | – | – | – | – | – | – | – | – | – |
| C=CCS[S+]([O-])CC=C (centres unmarked) [allicin] | – | – | – | – | – | – | inhibited sporozoite invasion of cells in a dose dependent manner | no effect on invasion | significantly decreased infectivity | little protection | decreased infectivity | 10 fold | 1000 fold | no evidence of malaria infection | prevented CSP cleavage to the same extent as when 50 μM allicin was present during the entire chase | inhibited | comparable to that observed with E-64 |
